We go through 6 molecules from US20260103466A1, “PROCESS FOR THE MANUFACTURE OF SALTS AND CRYSTALLINE FORMS OF 1-(8-BROMOPYRIDO[2,3-E][1,2,4]TRIAZOLO[4,3-A]PYRAZIN-4-YL)-NMETHYLAZETIDIN-3-AMINE AND NOVEL CRYSTALLINE FORMS” (JW PHARMACEUTICAL CORPORATION, priority 2022, published 2026).

Data set [1] in a line: Solid form stability on drying and in water-containing environments. In kind it is physicochemical. As to conditions: for Stability during gentle drying: polymorphic forms of the methyl sulfate salt.
A short description of data set [2]: Stability towards hydrolysis and pH during processing in aqueous environment. In kind it is physicochemical. Particulars: compared to the hydrogen sulfate salt; for Stability towards hydrolysis: processing in aqueous, elevated temperatures at least as high as 50° C.
Data set [3] can be described thus: Solubility in various solvents. In kind it is physicochemical.
The target of a further data set is histamine 4 receptor (Homo sapiens, UniProt Q9H3N8). As to conditions: cited from earlier work.
Chain of histamine 4 receptor (Q9H3N8 whole entry): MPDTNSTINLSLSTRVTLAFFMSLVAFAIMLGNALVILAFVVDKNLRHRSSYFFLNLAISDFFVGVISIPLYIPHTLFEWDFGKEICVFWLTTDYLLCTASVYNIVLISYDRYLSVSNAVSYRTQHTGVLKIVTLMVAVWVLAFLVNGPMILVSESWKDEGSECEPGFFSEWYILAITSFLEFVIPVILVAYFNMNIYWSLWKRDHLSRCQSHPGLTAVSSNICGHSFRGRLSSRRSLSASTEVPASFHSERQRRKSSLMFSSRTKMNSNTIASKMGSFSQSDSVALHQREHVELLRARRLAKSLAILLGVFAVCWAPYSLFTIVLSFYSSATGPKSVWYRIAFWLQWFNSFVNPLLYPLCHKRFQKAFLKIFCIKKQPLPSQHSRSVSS
Data set [4] deals with inflammatory cells such as mast cells and eosinophils. As to conditions: cited from earlier work.

“1-(8-bromopyrido[2,3-e][1,2,4]triazolo[4,3-a]pyrazin-4-yl)-N-methylazetidin-3-amine methyl sulfate monohydrate [form A]”: in data set [1] (freeze dryer or vacuum oven at 60° C.), the “Drying behaviour of crystal lattice” value is recorded as “without collapsing the crystal lattice”. Moreover, in data set [1], the “Stability during gentle drying” value is “stable”.
One may read the Solubility as the dissolved amount per volume that the medium holds. For the molecule “1-(8-bromopyrido[2,3-e][1,2,4]triazolo[4,3-a]pyrazin-4-yl)-N-methylazetidin-3-amine ethyl sulfate”, in data set [2], the “pH in aqueous environment” value is on record as “more neutral”. For the same molecule, the Stability towards hydrolysis result in data set [2] is “much more stable”. Besides, the Solubility was 17000 µg/mL in data set [3] (solvent 1,3-dimethyl-2-imidazolidinone, ethyl sulfate form A); 37 µg/mL in data set [3] (solvent 1-propanol, ethyl sulfate form A); 4.7 µg/mL in data set [3] (solvent 2-propanol, ethyl sulfate form A); 6.2 µg/mL in data set [3] (solvent Acetone, ethyl sulfate form A); 45 µg/mL in data set [3] (solvent Acetonitrile, ethyl sulfate form A); under 3.5 µg/mL in data set [3] (solvent Cyclohexane, ethyl sulfate form A). Further, the Solubility was under 3.5 µg/mL in data set [3] (solvent DCM, ethyl sulfate form A); 5900 µg/mL in data set [3] (solvent DMF, ethyl sulfate form A); 76000 µg/mL in data set [3] (solvent DMSO, ethyl sulfate form A); under 3.5 µg/mL in data set [3] (solvent EtOAc, ethyl sulfate form A); 120 µg/mL in data set [3] (solvent EtOH, ethyl sulfate form A); 23 µg/mL in data set [3] (solvent Isoamyl alcohol, ethyl sulfate form A). Besides, the Solubility in data set [3] (solvent MTBE, ethyl sulfate form A) is under 3.5 µg/mL; in data set [3] (solvent MeOH, ethyl sulfate form A), 1600 µg/mL; in data set [3] (solvent Methyl ethyl ketone, ethyl sulfate form A), 200 µg/mL; in data set [3] (solvent Toluene, ethyl sulfate form A), under 3.5 µg/mL.
On to “1-(8-bromopyrido[2,3-e][1,2,4]triazolo[4,3-a]pyrazin-4-yl)-N-methylazetidin-3-amine methyl sulfate”, for which, in data set [2], the “pH in aqueous environment” value is “more neutral”. Further, the Stability towards hydrolysis entry in data set [2] is “much more stable”. Also, the “Solubility (in words)” value in data set [3] (in 1-propanol acetonitrile and ethanol) is reported as “intermediate”; in data set [3] (in 1-propanol:H2O (1:5) and DMSO) it was “very high”; in data set [3] (in THF, EtOAC, Toluene, MTBE and methyl ethyl ketone), “very low”; in data set [3] (in a number of solvents) it was “relatively high”; in data set [3] (in isoamyl alcohol and 2-propanol), “low”; in data set [3] (in methanol and DMF), “high”. For the same molecule, the Solubility was 44000 µg/mL in data set [3] (solvent 1-propanol/H2O (1:5), solid form A + B); 50 µg/mL in data set [3] (solvent 1-propanol, solid form B); 16 µg/mL in data set [3] (solvent 2-propanol, solid form A + B); under 3 µg/mL in data set [3] (solvent Acetone, solid form B); 55 µg/mL in data set [3] (solvent Acetonitrile, solid form B); 8200 µg/mL in data set [3] (solvent DMF, solid form B). Moreover, the Solubility entry is “>/=69000 μg/ml” in data set [3] (solvent DMSO, solid form A + C); under 3 µg/mL in data set [3] (solvent EtOAc, solid form B); 110 µg/mL in data set [3] (solvent EtOH, solid form B); 6.3 µg/mL in data set [3] (solvent Isoamyl alcohol, solid form A + B); under 3 µg/mL in data set [3] (solvent MTBE, solid form A + B); 1600 µg/mL in data set [3] (solvent MeOH, solid form B). In addition, the Solubility in data set [3] (solvent Methyl ethyl ketone, solid form B) is under 3 µg/mL; in data set [3] (solvent THF, solid form B), under 3 µg/mL; in data set [3] (solvent Toluene, solid form A + B), under 3 µg/mL.
As for `CNC1CN(c2nc3ncc(Br)cc3n3cnnc23)C1.CS(=O)(=O)O` [methane sulfonate salt, 1-(8-bromopyrido[2,3-e][1,2,4]triazolo[4,3-a]pyrazin-4-yl)-N-methylazetidin-3-amine methane sulfonate], in data set [2], the “pH in aqueous environment” value was “more neutral” and the Stability towards hydrolysis entry is on record as “much more stable”.
Take `CNC1CN(c2nc3ncc(Br)cc3n3cnnc23)C1.COS(=O)(=O)O` [Form B, 1-(8-bromopyrido[2,3-e][1,2,4]triazolo[4,3-a]pyrazin-4-yl)-N-methylazetidin-3-amine methyl sulfate anhydrate]: the “Stability in water-containing environments” value in data set [1] (environments containing 60% water) is given as “stable”. In data set [1], the “Stability during gentle drying” value is “stable”.
In the case of `CNC1CN(c2nc3ncc(Br)cc3n3cnnc23)C1` [1-(8-bromopyrido[2,3-e][1,2,4]triazolo[4,3-a]pyrazin-4-yl)-N-methylazetidin-3-amine], the “histamine 4 receptor inhibitory effect” value at histamine 4 receptor is on record as “strong”. In addition, the “effects against histamine induced infiltration of inflammatory cells” value in data set [4] is “suppressive effects”.
